Here are results for 2 compounds from paper PMC11597817, “Modulation of Multispecific Transporters by Uncaria tomentosa Extract and Its Major Phytoconstituents” (Pharmaceutics, 2024).

Common to all, as to format: cell-based
Data set [1] has as its target T1, OATP1A2 (Homo sapiens, UniProt P46721).
T1 construct: expressed in transfected cells; host or cells: HEK293 (lentiviral transduction; cDNA synthesised by GenScript)
Nature of the data set: Uptake inhibition assay, OATP1A2-overexpressing HEK293 cells. The settings on record: oxindole alkaloids; substrate E3S; read-out: IC50 (95% CI of IC50). The method, then:
(§1) The human embryonic kidney 293 (HEK293) cell line was purchased from Invitrogen/ThermoFisher (Waltham, MA, USA). Madin–Darby canine kidney II (MDCKII) wild type cells were obtained from the European Collection of Authenticated Cell Cultures (ECACC catalog no. 00062107). […]
(§2) Plated cells were preincubated with a transport buffer (HBSS) containing 30 or 150 µg/mL of UT extract or 100 µM of isopteropodine, mitraphylline, or uncarine D for 15 min at an appropriate temperature. […] For radiolabeled substrates, accumulation was measured by liquid scintillation counting (MicroBeta Scintillation Counter, PerkinElmer).
(§3) The transporter-mediated uptake and ATP-dependent transport were determined by subtracting the activity of the control cell/transporter abundant-membrane in the presence of AMP from the activity of the transporter-overexpressing cell/transporter-abundant membrane in the presence of ATP. The relative transporter-specific accumulation was expressed as the percent of DMSO activity. […] Confidence intervals (CIs) of 95% were also determined. […]

Data set [2] concerns the target T2, OAT1 (Homo sapiens, UniProt Q4U2R8).
T2 construct: expressed in transfected cells; host or cells: HEK293 (lentiviral transduction; cDNA synthesised by GenScript)
Description: Uptake inhibition assay, OAT1-overexpressing HEK293 cells. The note with it: at 100 µM. The procedure: as §1, §2, §3

Data set [3] addresses T3, OCT1 (Homo sapiens, UniProt O15245).
T3 construct: expressed in transfected cells; host or cells: HEK293 (lentiviral transduction; cDNA synthesised by GenScript)
T3 sequence (O15245 1-554): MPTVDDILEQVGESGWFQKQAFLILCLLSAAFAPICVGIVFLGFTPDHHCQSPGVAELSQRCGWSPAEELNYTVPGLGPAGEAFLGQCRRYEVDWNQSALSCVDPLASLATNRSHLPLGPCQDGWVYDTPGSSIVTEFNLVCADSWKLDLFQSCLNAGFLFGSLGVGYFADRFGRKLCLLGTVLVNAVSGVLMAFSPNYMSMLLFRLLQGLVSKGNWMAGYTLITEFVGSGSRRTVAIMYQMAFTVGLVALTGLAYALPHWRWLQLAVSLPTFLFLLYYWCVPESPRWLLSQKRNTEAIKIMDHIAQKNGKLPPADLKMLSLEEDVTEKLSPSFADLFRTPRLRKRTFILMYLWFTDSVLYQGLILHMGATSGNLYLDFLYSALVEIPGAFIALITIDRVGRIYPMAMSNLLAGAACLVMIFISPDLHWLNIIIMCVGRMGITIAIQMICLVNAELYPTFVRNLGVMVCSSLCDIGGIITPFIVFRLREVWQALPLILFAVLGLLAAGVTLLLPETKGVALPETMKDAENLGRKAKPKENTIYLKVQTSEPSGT
Nature of the data set: Uptake inhibition assay, OCT1-overexpressing HEK293 cells. The note with it: oxindole alkaloids, substrate metformin, read-out: IC50 (95% CI of IC50).
Source text: The human embryonic kidney 293 (HEK293) cell line was purchased from Invitrogen/ThermoFisher (Waltham, MA, USA). Madin–Darby canine kidney II (MDCKII) wild type cells were obtained from the European Collection of Authenticated Cell Cultures (ECACC catalog no. 00062107). HEK293 cells overexpressing the human uptake OATP1B1 (NCBI Reference Sequence: NM_006446.4), OATP1B3 (NM_019844), OATP2B1 (NM_007256), OATP1A2 (NM_134431), OAT1-3 (BC033682.1; NM_006672.3; BC022387), OCT1-3 (BC126364.1; NM_003058; NM_021977), OCTN1 (NM_003059.3), NTCP (NM_003049.3), MATE1 (NM_018242.3), MATE2K (NM_001099646.2), ENT4 (NM_001040661.1), SGLT2 (AJ133127.1), ASCT1/2 (NM_003038.5; NM_005628.3), LAT1/2 (NM_003486.6; NM_012244.4), and THTR1/2 (NM_006996; NM_025243) and mock and human efflux BCRP (NM_004827.2), BSEP (NM_003742.2), MDR1 (NM_000927.4), and MRP1-5 (NM_004996; NM_000392.4; BC137347.1; NM_005845.4; NM_005688.2) transporters as well as MDCKII overexpressing human ENT1/2 (NM_001078177; NM_001532.2) and URAT1 (BC053348) transporters were created by lentiviral transduction. The cDNA encoding respective transporters were synthetized and cloned by GenScript (Piscataway, NJ, USA). The production of lentivirus supernatants, the transduction of the cells, cloning, functional characterization, and validation were performed by Charles River Laboratories Hungary Kft. (Budapest, Hungary).
Cell cultures were maintained in Dulbecco’s modified Eagle’s medium (DMEM), 4.5 g/L of glucose, supplemented with GlutaMAX^TM, 2.5 v/v % penicillin/streptomycin, and 10% fetal bovine serum (FBS) at 37 °C, 5% CO2, and 90% relative humidity. The medium was replaced two or three times per week; cells were harvested using TrypLE™ Express (ThermoFisher) at 80 to 90% confluence and passaged or seeded. HEK293 cells of passage < 12 (from thawing) and MDCKII cells of passage < 18 were seeded at a density of 1 × 10^5 cells/well onto poly-D-lysine-coated or -non-coated 96-well plates and incubated for 18–22 h prior to inhibition assays.
as §2, §3

The target in data set [4] is T4, OAT3 (Homo sapiens, UniProt Q8TCC7).
T4 construct: expressed in transfected cells; host or cells: HEK293 (lentiviral transduction; cDNA synthesised by GenScript)
T4 sequence (Q8TCC7 whole entry): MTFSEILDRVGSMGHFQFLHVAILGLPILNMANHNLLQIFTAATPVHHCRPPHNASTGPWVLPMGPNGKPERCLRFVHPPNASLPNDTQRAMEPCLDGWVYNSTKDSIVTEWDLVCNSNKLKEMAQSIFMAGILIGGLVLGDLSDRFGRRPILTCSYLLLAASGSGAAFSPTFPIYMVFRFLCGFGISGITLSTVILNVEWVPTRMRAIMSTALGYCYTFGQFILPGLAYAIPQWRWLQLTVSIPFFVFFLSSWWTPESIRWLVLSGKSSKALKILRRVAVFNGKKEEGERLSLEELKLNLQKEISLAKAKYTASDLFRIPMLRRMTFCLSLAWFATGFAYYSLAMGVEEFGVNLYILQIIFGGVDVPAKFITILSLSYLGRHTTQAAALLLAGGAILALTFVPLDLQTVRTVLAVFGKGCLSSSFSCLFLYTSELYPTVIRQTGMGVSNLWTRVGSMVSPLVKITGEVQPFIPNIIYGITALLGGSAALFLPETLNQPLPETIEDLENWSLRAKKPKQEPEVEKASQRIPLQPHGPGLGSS
Nature of the data set: Uptake inhibition assay, OAT3-overexpressing HEK293 cells. The note with it: oxindole alkaloids, substrate E3S, read-out: IC50 (95% CI of IC50). The procedure: as §1, §2, §3

Molecules are shown by their SMILES. Where two headings read alike, the source gives them in different places.

T2 sequence (Q4U2R8 whole entry): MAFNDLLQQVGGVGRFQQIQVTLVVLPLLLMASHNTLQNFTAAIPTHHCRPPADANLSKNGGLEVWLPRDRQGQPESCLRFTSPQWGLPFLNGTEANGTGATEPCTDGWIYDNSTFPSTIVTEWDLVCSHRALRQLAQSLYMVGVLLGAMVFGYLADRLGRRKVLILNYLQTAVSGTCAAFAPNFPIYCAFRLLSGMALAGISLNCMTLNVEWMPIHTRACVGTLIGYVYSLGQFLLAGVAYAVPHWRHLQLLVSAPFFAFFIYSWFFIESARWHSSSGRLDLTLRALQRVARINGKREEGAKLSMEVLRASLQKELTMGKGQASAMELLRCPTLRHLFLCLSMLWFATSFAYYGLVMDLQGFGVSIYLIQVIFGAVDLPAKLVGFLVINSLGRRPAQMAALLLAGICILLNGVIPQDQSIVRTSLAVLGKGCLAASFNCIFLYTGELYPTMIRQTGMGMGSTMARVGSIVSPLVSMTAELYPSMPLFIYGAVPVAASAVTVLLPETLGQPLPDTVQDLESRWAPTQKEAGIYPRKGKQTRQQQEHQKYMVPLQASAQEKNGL
T1 sequence (P46721 whole entry): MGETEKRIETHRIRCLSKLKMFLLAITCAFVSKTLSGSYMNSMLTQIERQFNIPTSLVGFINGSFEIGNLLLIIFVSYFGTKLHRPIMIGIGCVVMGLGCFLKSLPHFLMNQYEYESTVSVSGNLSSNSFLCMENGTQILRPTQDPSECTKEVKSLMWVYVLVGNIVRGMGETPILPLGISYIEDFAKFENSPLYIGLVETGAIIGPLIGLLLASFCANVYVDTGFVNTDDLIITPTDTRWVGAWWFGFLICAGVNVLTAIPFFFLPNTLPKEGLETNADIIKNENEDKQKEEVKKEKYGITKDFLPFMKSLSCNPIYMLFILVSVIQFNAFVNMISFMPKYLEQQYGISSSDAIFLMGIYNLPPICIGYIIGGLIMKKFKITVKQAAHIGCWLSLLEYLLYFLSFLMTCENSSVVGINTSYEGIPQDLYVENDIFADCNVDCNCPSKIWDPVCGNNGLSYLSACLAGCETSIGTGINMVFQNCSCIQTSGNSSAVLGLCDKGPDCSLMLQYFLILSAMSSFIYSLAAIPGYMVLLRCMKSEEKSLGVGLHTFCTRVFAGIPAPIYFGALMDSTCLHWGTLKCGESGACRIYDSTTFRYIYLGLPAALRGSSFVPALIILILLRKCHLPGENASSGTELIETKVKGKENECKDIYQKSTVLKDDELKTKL

One may read the IC50 as the concentration at which inhibition is half-maximal. `COC(=O)C1=CO[C@@H](C)[C@@H]2CN3CC[C@@]4(C(=O)Nc5ccccc54)[C@@H]3C[C@H]12` [isopteropodine]: the IC50 in data set [1] was found to be 36.1 µM; in data set [3] (listed as Isopteropodine), 2.81 µM; in data set [3], 2.8 µM; in data set [4] (listed as Isopteropodine) it was 46.5 µM; in data set [4], 46.5 µM. Further, the “decrease of transporter-mediated transport” value in data set [2] is “around 50%”.
Take `COC(=O)C1=CO[C@@H](C)[C@H]2CN3CC[C@]4(C(=O)Nc5ccccc54)[C@@H]3C[C@H]12` [mitraphylline]: the IC50 was found to be 7.05 µM in data set [3] (listed as Mitraphylline) and 7.1 µM in data set [3].
